Data on three molecules can be found in patent US7182963B2, “Cosmetic and dermopharmaceutical compositions for skin prone to acne” (priority 2001, dated 2007).

Assay [1] deals with Staphylococcus hominis. The assay is described as follows: Antibacterial effect, agar incorporation, strain B. Also on record: key to bacterial growth, strain B: ‘+’ = bacterial growth; ‘−’ = no bacterial growth. The conditions noted are these: for bacterial growth, strain B: 24 h (same at 48 h), equivalent to 5% premix. The format is cell-based. On the procedure: (§1) Test Principle and Implementation: 1 mL of the premix in example No. 1 or its constituents at concentrations equivalent to 5% of the premix were incorporated in molten agar medium (BioMérieux) plated in a Petri dish. […] The plates were then incubated at 37° C. for 24 and 48 hours and inspected visually. Five strains, Corynebacterium minutissimum, Propionibacterium acnes, Staphylococcus aureus, Staphylococcus hominis and Acinetobacterium calcoaceticus were studied.

Assay [2] has as its system 5α-reductase. Nature of the assay: Inhibition of 5α-reductase, enzymatic assay (NADPH absorbance at 340 nm), in vitro. It counts as biochemical. The conditions noted are these: for % inhibition: mean±SEM, 5 assays. On the procedure:
Principle and implementation of the test (adapted from Zy and Zu, 1998):
Testosterone is irreversibly metabolized by 5α-reductase to […] (5-DHT) in the presence of the cofactor NADPH. The reaction is monitored, at 37° C., by determining, using a spectrophotometer, the reduction in the absorbance of the reaction medium at 340 nm, due to the conversion of NADPH to NADP.
The test thus consists in mixing testosterone, NADPH and the test product or its vehicle alone (control reaction). After 3 minutes to allow the system to equilibrate, the baseline absorbance of the system is determined. Then the reaction is triggered by addition of the enzyme, 5α-reductase. After 10 minutes, a second determination of the absorbance, final absorbance, is conducted. The difference between the two measurements reflects the quantity of NADPH consumed. That quantity is proportional to the quantity of testosterone converted to 5-DHT.

Assay [3] deals with Acinetobacterium calcoaceticus. The assay is described as follows: Antibacterial effect, agar incorporation, strain E. The format is cell-based. Also on record: key to bacterial growth, strain E: ‘+’ = bacterial growth; ‘−’ = no bacterial growth. The conditions noted are these: for antimicrobial activity: A. calcoaceticus; for bacterial growth, strain E: 24 h (same at 48 h), equivalent to 5% premix. How it is done: as §1

Assay [4] concerns interleukin 6 (IL-6) on normal human fibroblasts (HF). The assay is described as follows: Anti-inflammatory effect: IL-6 (ELISA) in normal human fibroblasts after UV-B irradiation. The format is cell-based. The conditions noted are these: for HF % change (IL-6 vs. tests without UV exposure): UV-B 50 mJ.cm^−2, 24 hours. On the procedure: (§2) Principle and test implementation: it is possible to estimate a degree of inflammation by determining the quantity of mediators such as prostaglandins, leukotrienes or interleukins. In this example, we selected assay of interleukin 6 (IL-6) on normal human fibroblasts (HF) and keratinocytes (HK) in culture following exposure to UV-B irradiation. Broadly speaking, the cells were cultured in a conventional culture medium (DMEMc+10% FCS) for periods of 24 hours for HF and 1 week for HK. After elimination of the buffer and 2 successive washings with phosphate buffer solution, the cells were exposed to UV-B irradiation at a standardized energy level of 50 mJ.cm^−2. The buffer was then rapidly eliminated and replaced by the same culture medium as that used at the start of the experiment, but containing the test extracts at the prerequisite concentrations or DMSO for the control series. After 24 hours, the culture medium was harvested and IL-6 concentration determined using a standard ELISA method. An additional series was conducted using the same protocol but without UV-B irradiation in order to determine the baseline level and control the stability of the study system. All the assays were conducted in triplicate.
A general note: An ELISA detects its analyte on a solid surface through an enzyme-linked reagent.

Assay [5] concerns interleukin 6 (IL-6) on normal human keratinocytes (HK). The assay is described as follows: Anti-inflammatory effect: IL-6 (ELISA) in normal human keratinocytes after UV-B irradiation. The format is cell-based. The conditions noted are these: for HK % change (IL-6 vs. tests without UV exposure): UV-B 50 mJ.cm^−2, 24 hours. On the procedure:
as §2

For assay [6], the system named is normal human keratinocytes (HK). The assay is described as follows: Antiproliferative effect on keratinocytes (DNA quantity, Hoechst 33258). The format is cell-based. The conditions noted are these: for % inhibition (quantity of DNA, number of cells): 1 week culture. An excerpt: Test principle and implementation: since the quantity of DNA is constant for each cell, the determination of the overall quantity of DNA is equivalent to measuring the number of cells used for the determination. This principle enables routine use of more refined but very cumbersome methodologies to be avoided. Various methods have been developed on the basis of this protocol, of which, in particular, that used herein. When bound to DNA with a constant and known stereochemistry, the fluorophore, Hoechst 33258, presents, first, increased fluorescence, but also an emission spectrum shift from 492 to 458 nm. By means of comparison with pre-established sets of standards, the concomitant monitoring of the above 2 parameters enables quantification of the quantity of DNA present in the cell samples studied. Broadly speaking, normal human keratinocytes (HK) are cultured in a classic culture medium (DMEMc+10% FCS) for 1 week, in the absence of the test product (control series in order to determine the baseline cell proliferation of the system studied) or in the presence of the test products alone or in combination. Fluorophore Hoechst 33258 was added at the end of the protocol before withdrawing cell aliquots for assay. The assays were conducted in triplicate as 3 mutually independent assays.

In assay [7] the test system is 5α-reductase. Nature of the assay: Inhibition of 5α-reductase, HPLC determination of testosterone, in vitro. The format is biochemical. The conditions noted are these: for % inhibition: mean±SEM, 5 assays. How it is done:
Principle and implementation of the test: the aim of this test was to confirm the previous result but using an HPLC analysis method. Unlike 5-DHT, testosterone absorbs light at the wavelength used (245 nm). The decrease in testosterone peak area (which was characterized under our operating conditions by a retention time of 26 minutes) reflects the reduction of the concentration of the compound in the study medium and thus reflects 5α-reductase activity.
The same type of protocol as in the previous example was used, but instead of determining the absorbances, the reaction media were analyzed by HPLC.

In assay [8] the test system is P. acnes. Nature of the assay: Antibacterial effect, agar incorporation, strain D. Also on record: key to bacterial growth, strain D: ‘+’ = bacterial growth; ‘−’ = no bacterial growth. It counts as cell-based, Propionibacterium acnes. Particulars: for bacterial growth, strain D: 24 h (same at 48 h), equivalent to 5% premix. On the procedure: as §1
The test system of assay [9] is Staphylococcus aureus. Nature of the assay: Antibacterial effect, agar incorporation, strain C. It counts as cell-based. Set-up: key: ‘+’ = bacterial growth; ‘−’ = no bacterial growth. Particulars: 24 h (same at 48 h), equivalent to 5% premix. On the procedure:
as §1

Assay [10] has as its system Corynebacterium minutissimum. The assay is described as follows: Antibacterial effect, agar incorporation, strain A. The format is cell-based. Also on record: key: ‘+’ = bacterial growth; ‘−’ = no bacterial growth. The conditions noted are these: 24 h (same at 48 h), equivalent to 5% premix. On the procedure: as §1
The mark [11] stands for this setting: [c] 0.01%, listed as nordihydroguaiaretic acid.

A word on the % inhibition: it is the drop in the measured response relative to a control, in per cent. For `CC(Cc1ccc(O)c(O)c1)C(C)Cc1ccc(O)c(O)c1` (stereo not drawn) [NDGA, nordihydroguaiaretic acid], the “antimicrobial activity” value in assay [1] (S. hominis) and in assay [3] was “selective antimicrobial activity” throughout. Moreover, the “activity in the test” value in assay [2] and in assay [7] was “no activity” throughout. Also, the “% inhibition” value in assay [2] ([c] 0.01%) was determined as 2.1 ± 1.6%; in assay [2] ([c] 0.04%), 3.7 ± 2.9%; in [2] ([c] 0.1%), 3.0 ± 1.9%; in assay [7] ([c] 0.01%), 1.2 ± 0.4%; in [7] ([c] 0.04%) it was 1.0 ± 0.9%; in assay [7] ([c] 0.1%) it was 0.9 ± 0.7%. In addition, the “inhibition vs. irradiated control (HF)” value in assay [4] (0.01%) came to 19%. For the same molecule, the “HF % change (IL-6 vs. tests without UV exposure)” value in assay [4] ([c] 0.01%) is “+356 ± 18%”; in assay [4] (setting [11]), “+356%”; in assay [4] ([c] 0.04%), “+155 ± 9%”; in assay [4] ([c] 0.1%) it was “+87 ± 7%”. The “inhibition vs. irradiated control (HK)” value in assay [5] (0.01%) is given as 14%. In addition, the “HK % change (IL-6 vs. tests without UV exposure)” value was “+388 ± 10%” in assay [5] ([c] 0.01%), “+388%” in assay [5] (setting [11]), “+201 ± 10%” in assay [5] ([c] 0.04%) and “+91 ± 14%” in assay [5] ([c] 0.1%). Also, the “% inhibition (quantity of DNA, number of cells)” value amounted to 22.3 ± 1.9% in assay [6] ([c] 0.04%) and 29.9 ± 1.7% in assay [6] ([c] 0.1%).
As to `CC1(C)CC[C@]2(C(=O)O)CC[C@]3(C)C(=CC[C@@H]4[C@@]5(C)CC[C@H](O)C(C)(C)[C@@H]5CC[C@]43C)[C@@H]2C1` [Oleanolic acid, oleanolic acid], the “antimicrobial activity” value in assay [8] (P. acnes) and in [3] was “selective antimicrobial activity” each time. The “% inhibition” value is given as 16.7 ± 1.1% in [2] ([c] 0.01%); 31.7 ± 2.9% in assay [2] ([c] 0.03%); 56.3 ± 2.6% in assay [2] ([c] 0.1%); 56% in [2] ([c] 0.1%, listed as oleanolic acid); 10.9 ± 1.4% in assay [7] ([c] 0.01%); 25.6 ± 2.0% in assay [7] ([c] 0.03%). Besides, the “% inhibition” value in [7] ([c] 0.1%) is 48%; in assay [7] ([c] 0.1%, listed as Oleanolic acid (obtained from olive tree leaves)), 47.7 ± 3.8%. In addition, the “activity in the test, HF” value in assay [4] was “devoid of activity”. Besides, the “HF % change (IL-6 vs. tests without UV exposure)” value is “+455 ± 14%” in [4] ([c] 0.01%), “+437 ± 12%” in assay [4] ([c] 0.03%) and “+441 ± 18%” in assay [4] ([c] 0.1%). The “activity in the test, HK” value in [5] is “devoid of activity”. Further, the “HK % change (IL-6 vs. tests without UV exposure)” value in [5] ([c] 0.01%) was “+461 ± 16%”; in [5] ([c] 0.03%), “+444 ± 14%”; in assay [5] ([c] 0.1%) it was “+450 ± 14%”. For the same molecule, the “activity in the test” value in assay [6] is on record as “devoid of activity”. For the same molecule, the figures for the “% inhibition (quantity of DNA, number of cells)” value in assay [6] ([c] 0.01%), in assay [6] ([c] 0.03%) and in assay [6] ([c] 0.1%) were 0.9 ± 1.0%, 1.1 ± 1.6% and 0.7 ± 0.7%, respectively.
Consider `Oc1cc(Cl)ccc1Oc1ccc(Cl)cc1Cl` [Trichlosan], for which the “bacterial growth, strain D” value in assay [8] (10^4 bacteria/mL) and in assay [8] (10^5 bacteria/mL) was “−” in each case. Further, the “bacterial growth, strain B” value in assay [1] (10^4 bacteria/mL) and in assay [1] (10^5 bacteria/mL) was “−” throughout. Further, the “bacterial growth, strain E” value in assay [3] (10^4 bacteria/mL) and in assay [3] (10^5 bacteria/mL) was “−” each time. Moreover, the “bacterial growth, strain C” value in [9] (10^4 bacteria/mL) and in assay [9] (10^5 bacteria/mL) was “−” throughout. Further, the “bacterial growth, strain A” value in [10] (10^4 bacteria/mL) and in [10] (10^5 bacteria/mL) was “−” in each case.
